# Measured values published in article PMC12680549, “Impact of Seasonal Variation on Antioxidant, Enzyme Inhibitory, and Anti‐Inflammatory Potentials of Cistus creticus Leaf Extracts” (ChemistryOpen, 2025).
# Test system: T1, urease
# T1 construct: gene urea amidohydrolase; the jack bean enzyme is only a guess from the usual assay; Helicobacter pylori is named only as background
# Assay: phenol-hypochlorite assay, […] nm
# Type: biochemical, Canavalia ensiformis
# Conditions: 17 mM urea, 30 °C, 50 min; enzyme source not stated
compound,measurement,value
NC(N)=S [Thiourea],Antiurease / IC50 μg mL^-1,11.57 ± 0.68 µg/mL
